Experimental data: patent USRE37919E1, “Recombinant DNA method for production of parathyroid hormone” (The General Hospital Corporation, priority 1989, dated 2002)
Like-named read-outs stand apart in the source and are kept apart here.

Tests used:
opossum kidney cells [1] = type: cell-based
Source text: (§1) Therefore, the recombinant peptide had PTH biological activity which is largely indistinguishable from that of a known active fragment.

[2] = system: UMR rat osteosarcoma cell line; experiment: Binding to UMR rat osteosarcoma cell line; settings: FIG. 4
Protocol: (§2) The recombinant peptide produced as described in Example 1 above was tested for it binding to two cells types.

UMR cells = experiment: Cyclic AMP response of UMR tumor cells; type: cell-based, rat; settings: FIG. 6, read-out: EC50 of cyclic AMP stimulation
Source text: as §1

opossum kidney cells [3] = experiment: Binding to opossum kidney cells; settings: FIG. 3
Protocol: as §2

PTH receptors = biological target: T1, PTH receptors (Homo sapiens, UniProt Q03431); settings: literature; cited from earlier work
T1 sequence (Q03431 27-593): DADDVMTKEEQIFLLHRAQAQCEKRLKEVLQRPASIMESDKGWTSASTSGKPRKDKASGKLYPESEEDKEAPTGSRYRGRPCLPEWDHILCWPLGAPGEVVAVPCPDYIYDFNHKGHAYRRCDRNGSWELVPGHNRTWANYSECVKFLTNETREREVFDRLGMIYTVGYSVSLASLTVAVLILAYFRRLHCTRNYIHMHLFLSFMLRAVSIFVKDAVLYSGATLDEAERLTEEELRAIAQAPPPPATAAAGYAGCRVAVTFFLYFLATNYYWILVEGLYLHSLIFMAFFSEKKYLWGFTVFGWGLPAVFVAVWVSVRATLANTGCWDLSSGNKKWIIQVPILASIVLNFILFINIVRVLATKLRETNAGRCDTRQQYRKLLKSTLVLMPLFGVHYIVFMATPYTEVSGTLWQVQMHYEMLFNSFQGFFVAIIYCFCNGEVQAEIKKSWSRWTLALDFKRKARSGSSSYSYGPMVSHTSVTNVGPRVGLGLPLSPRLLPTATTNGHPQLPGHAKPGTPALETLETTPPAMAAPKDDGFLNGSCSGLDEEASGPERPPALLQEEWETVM

Compound: CC[C@H](C)[C@H](NC(=O)[C@H](CCC(=O)O)NC(=O)[C@H](CO)NC(=O)[C@@H](NC(=O)[C@@H](N)CO)C(C)C)C(=O)N[C@@H](CCC(N)=O)C(=O)N[C@@H](CC(C)C)C(=O)N[C@@H](CCSC)C(=O)N[C@@H](Cc1c[nH]cn1)C(=O)N[C@@H](CC(N)=O)C(=O)N[C@@H](CC(C)C)C(=O)NCC(=O)N[C@@H](CCCCN)C(=O)N[C@@H](Cc1c[nH]cn1)C(=O)N[C@@H](CC(C)C)C(=O)N[C@@H](CC(N)=O)C(=O)N[C@@H](CO)C(=O)N[C@@H](CCSC)C(=O)N[C@@H](CCC(=O)O)C(=O)N[C@@H](CCCNC(=N)N)C(=O)N[C@H](C(=O)N[C@@H](CCC(=O)O)C(=O)N[C@@H](Cc1c[nH]c2ccccc12)C(=O)N[C@@H](CC(C)C)C(=O)N[C@@H](CCCNC(=N)N)C(=O)N[C@@H](CCCCN)C(=O)N[C@@H](CCCCN)C(=O)N[C@@H](CC(C)C)C(=O)N[C@@H](CCC(N)=O)C(=O)N[C@@H](CC(=O)O)C(=O)N[C@H](C(=O)N[C@@H](Cc1c[nH]cn1)C(=O)N[C@@H](CC(N)=O)C(=O)N[C@@H](Cc1ccccc1)C(=O)O)C(C)C)C(C)C [synthetic PTH(1-34)]
- EC50 (opossum kidney cells [1]): ~4 nM
- half-maximum value of binding [2]: about 2 nM
- EC50 (UMR cells): ~0.1 nM
- half-maximal binding (opossum kidney cells [3]): about 1 nM

Compound: PTH (3-34): synthetic analog of bovine PTH, recognized PTH antagonist (SEIQFMHNLGKHLSSMERVEWLRKKLQDVHNF; Parathyroid hormone; UniProt P01268 34-65, looked up, fragment)
- PTH antagonist activity in vitro (PTH receptors): potent PTH antagonist

Compound: human parathyroid hormone 1-84 [recombinant hPTH(1-84)]
- EC50 (opossum kidney cells [1]; opossum kidney cells, FIG. 5, read-out: EC50 of cyclic AMP stimulation): ~10 nM
- half-maximum value of binding [2]: about 10 nM
- EC50 (UMR cells): ~3 nM
- half-maximal binding (opossum kidney cells [3]): about 3 nM
